Assay results taken from patent US5977442A, “Salicylic acid induced map kinase and its use for enhanced disease resistance in plants” (priority 1997, dated 1999).

Experiments:
p48 SIP kinase [1] = test: In-gel kinase activity assay (MBP substrate) in extracts of treated tobacco suspension cells: activation of p48 SIP kinase; type: cell-based, Nicotiana tabacum cv Xanthi nc; conditions: tobacco suspension cells; for activation of 48 kDa (p48 SIP) kinase: 250 μM, MBP substrate; for duration of SIP kinase activation relative to SA: data not shown for analogues
Experimental: The cell suspension culture was derived from callus tissue originated from leaves of Nicotiana tabacum cv Xanthi nc and grown in MS medium supplemented with 1 mg/L α-naphthaleneacetic acid, 0.1 mg/L 2,4-dichlorophenoxyacetic acid, 0.1 mg/L benzyladenine, and 3% sucrose. Log phase cells were used three days after a 1:10 dilution. Treatment with H2 O2, SA and its analogues was performed in the original flasks in the dark to avoid any stresses associated with transfer. At various times, 10 mL cells (approximately 0.2 to 0.3 g fresh weight of cells) were harvested by filtration. The cells were quickly frozen in liquid nitrogen and stored at -80° C. until analysis.
Leaf discs were first ground to a fine powder in 1.5 ml microcentrifuge tubes using small plastic pestles. After adding 0.25 mL extraction buffer (100 mM Hepes, pH 7.5, 5 mM EDTA, 5 mM EGTA, 10 mM DTT, 10 mM Na3 VO4, 10 mM NaF, 50 mM β-glycerolphosphate, 1 mM phenylmethylsulfonyl fluoride, 5 μg/mL antipain, 5 μg/mL aprotinin, 5 μg/mL leupeptin, 10% glycerol, 7.5% polyvinylpolypyrrolidone), the mixture was sonicated for 15 seconds with a W-375 Sonicator (Heat System-Ultrasonics, Inc., N.Y.) fitted with a microprobe at setting 4 and 80% duty cycle. To prepare extracts from treated cells, cells were mixed with two volumes (w/v) of extraction buffer and were then sonicated twice for 15 seconds each in 1.5 mL microcentrifuge tube. After centrifugation at 13,000 rpm for 20 minutes, supernatants were transferred into clean tubes, quickly frozen in liquid nitrogen and stored at -80° C.
The in-gel kinase assay was performed as described previously (Zhang et al., 1993). Extracts containing 10 μg protein were electrophoresed on 10% SDS-polyacrylamide gels imbedded with either 1 mg/mL of casein, 1 mg/mL histone (Type III-SS, Sigma, MO), 1 mg/mL BSA, or 0.25 mg/mL of MBP in the separating gel as substrate for the kinase. After electrophoresis, SDS was removed by washing the gel with washing buffer (25 mM Tris, pH 7.5, 0.5 mM DTT, 0.1 mM Na3 VO4, 5 mM NaF, 0.5 mg/mL BSA, 0.1% Triton X-100 [v/v]). The buffer was changed three times, each for 30 minutes at room temperature. The kinases were allowed to renature in 25 mM Tris, pH 7.5, 1 mM DTT, 0.1 mM Na3 VO4, 5 mM NaF at 4° C. overnight with three changes of buffer. The gel was then incubated at room temperature in 30 mL reaction buffer (25 mM Tris, pH 7.5, 2 mM EGTA, 12 mM MgCl2, 1 mM DTT, 0.1 mM Na3 VO4) with 200 nM ATP plus 50 μCi γ-^32 P-ATP (3000 Ci/mmole) for 60 minutes. The reaction was stopped by transferring the gel into 5% TCA (w/v)/1% NaPPi (w/v). The unincorporated γ-^32 P-ATP was removed by washing in the same solution for at least 6 hours with 5 changes of buffer. The gel was dried onto 3 MM paper and exposed to Kodak XAR-5 film. Prestained size markers (Bio-Rad, CA) were used to calculate the size of the kinases. Quantitation of the relative kinase activities were done using a phosphoimager (Molecular Dynamics Inc., CA).

[2] = system: PR gene expression and enhanced disease resistance; conditions: Conrath et al., 1995; cited from earlier work
p48 SIP kinase [3] = biological target: T1, p48 SIP kinase (Nicotiana tabacum, UniProt A0A1S3Z5Y0); test: Kinetic properties, substrates, cofactors and pH dependence of p48 SIP kinase (in-solution kinase assay); type: biochemical, tobacco; conditions: for use as phospho-donor / phosphate donor: data not shown; for metal ion requirement of the enzyme: FIG. 10B
T1 construct: endogenous in cells; host or cells: SA-treated tobacco suspension culture cells (purified through the poly-L-lysine agarose step)
T1 sequence (A0A1S3Z5Y0 whole entry): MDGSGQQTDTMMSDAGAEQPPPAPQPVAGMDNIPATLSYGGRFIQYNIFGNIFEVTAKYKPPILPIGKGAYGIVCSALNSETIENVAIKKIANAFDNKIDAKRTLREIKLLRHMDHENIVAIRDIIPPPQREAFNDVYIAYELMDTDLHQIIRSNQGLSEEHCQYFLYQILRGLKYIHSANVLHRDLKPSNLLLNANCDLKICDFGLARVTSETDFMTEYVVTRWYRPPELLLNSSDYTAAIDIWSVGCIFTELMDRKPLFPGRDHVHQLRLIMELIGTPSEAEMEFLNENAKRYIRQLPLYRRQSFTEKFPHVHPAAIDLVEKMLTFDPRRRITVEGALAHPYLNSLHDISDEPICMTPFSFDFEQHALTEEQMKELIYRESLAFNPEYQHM
Experimental: FIGS. 10A and 10B show a pair of graphs illustrating the effect of pH (FIG. 10A), Mg^2+ and Mn^2+ (FIG. 10B) on p48 SIP kinase activity. Approximately 0.5 unit of partially purified enzyme was used in each test. Buffers used for measuring the effect of pH were 50 mM 2-[N-morpholino]ethanesulfonic acid (Mes, pH 5.0-8.0, .circle-solid.), 50 mM Tris (pH 6.0-9.5, .tangle-solidup.), and 50 mM 3-[cyclohexylamino]-1-propanesulfonic acid (Caps, pH 9.0-12.0, .box-solid.). For testing the effects of Mg^2+ (.circle-solid.), and Mn^2+ (.tangle-solidup.), buffer B from the last purification step was first exchanged to Mg^2+ -free buffer using a desalting column. Mg^2+ was not added in reactions for testing the effect of Mn^2+.
FIG. 11 is a graph depicting the protein substrate preference of the p48 SIP kinase. About 0.5 unit of partially purified enzyme was used in each reaction. The assay conditions were as described below in Example 1, except various concentrations of MBP (.circle-solid.), histone (.tangle-solidup.), and casein (.box-solid.) were used.
(§1) Unless specifically indicated, assays were performed at room temperature for 20 minutes in a final volume of 15 μl containing 0.5 mg/mL of MBP, 50 μM of γ-^32 P-ATP (about 3000-6000 cpm/pmole), 25 mM Tris pH 7.5, 5 mM MgCl2, 1 mM EGTA, 1 mM DTT, and enzyme. The reaction was terminated by the addition of equal volume of 150 mM H3 PO4. Twenty μL of the mixture was spotted onto an 8-well phosphocellulose filter strip (Pierce, Ill.). After washing with 150 mM H3 PO4 extensively, the phospho-protein was eluted with 0.4 mL of 1 N NaOH, and the radioactivity was determined by liquid scintillation counting. Total cpm in the reaction mixture was also determined in order to calculate the specific activity of the enzyme preparation. One unit of p48 SIP kinase was defined as the amount of enzyme that will catalyze the transfer of 1 pmole of phosphate from ATP to MBP in 1 minute.

p48 SIP kinase [4] = biological target: T1, p48 SIP kinase; test: In-solution kinase assay: effects of various reagents on p48 SIP kinase activity; type: biochemical, tobacco; conditions: for effect on p48 SIP kinase activity: partially purified p48 SIP kinase; for activity at 5000 µM: 5 mM
Experimental: as §1
^a For each reagent, a dose response curve was measured under standar
assay conditions. About 0.5 unit of enzyme was used for each reaction.
Control was the enzyme activity in the absence of reagent.

p48 SIP kinase [5] = test: Treatment of p48 SIP kinase with phosphatases; type: biochemical, tobacco; conditions: okadaic acid against PP1; Na3 VO4 against YOP
Experimental: FIG. 13 is a histogram showing inactivation of p48 SIP kinase by phosphatase treatment. Approximately 20 units of the SIP kinase was treated with either the serine/threonine-specific phosphatase PPI (0.1 units) or the tyrosine-specific protein phosphatase YOP (0.5 units) for 10 min (bars 2 to 5) or 30 min (bars 7 to 10) at 30° C. in the presence or absence of a phosphatase inhibitor. Bars 1 and 6 represent the control without phosphatase or phosphatase inhibitor; bars 2 and 7, PPI; bars 3 and 8, PPI plus okadaic acid (1 μM); bars 4 and 9, YOP; bars 5 and 10, YOP plus Na3 VO4 (1 mM). Before assaying for SIP kinase activity, the phosphatase inhibitors were added to all of the reactions to the same final concentrations.
The phosphatase inhibitors present in the purified p48 SIP kinase preparation were first removed by dialysis against buffer B lacking β-glycerophosphate and Na3 VO4 in a 0.5-mL 10 K dialysis cassette (Slide-A-Lyzer; Pierce). For treatment with serine/threonine protein phosphatase PP1 (Calbiochem, San Diego, Calif.), MnCl2, DTT, and BSA were added to aliquots of the SIP kinase preparation to final concentrations of 200 μm, 5 mM and 100 μg/mL respectively. Then 0.1 unit of PP1 was added, and the reaction mixture was incubated at 30° C. in the presence or absence of 1 μM of the phosphatase inhibitor okadaic acid (Calbiochem). […]

[6] = biological target: p48 SIP kinase (salicylic acid-induced protein kinase), activated form from SA- or H2O2-treated tobacco cells, in extracts or purified (tobacco (Nicotiana tabacum cv Xanthi nc))
[7] = 20 min, pH 7.5, read-out: Relative Activity

O=C(O)c1cccc(O)c1 [3-HBA, 3-hydroxybenzoic acid]
activation of 48 kDa (p48 SIP) kinase (p48 SIP kinase [1]): poor activators

O=C(O)c1ccc(Cl)cc1O [4-CSA, 4-chloroSA]
activation of 48 kDa (p48 SIP) kinase (p48 SIP kinase [1]): activated the SIP kinase to similar extents as SA
duration of SIP kinase activation relative to SA (p48 SIP kinase [1]): more sustained activation of the SIP kinase than SA
induction of PR gene expression and enhanced disease resistance [2]: induce PR gene expression and enhanced disease resistance in tobacco

O=C(O)c1ccc(O)cc1 [4-HBA]
activation of 48 kDa (p48 SIP) kinase (p48 SIP kinase [1]): poor activators

O=C(O)c1cc(Cl)ccc1O [5-CSA]
activation of 48 kDa (p48 SIP) kinase (p48 SIP kinase [1]): activated the SIP kinase to similar extents as SA
duration of SIP kinase activation relative to SA (p48 SIP kinase [1]): more sustained activation of the SIP kinase than SA
induction of PR gene expression and enhanced disease resistance [2]: induce PR gene expression and enhanced disease resistance in tobacco

[Ca+2] [Ca^2+]
calcium requirement for activity (p48 SIP kinase [3]): lacks a calcium requirement for activity
Relative Activity (p48 SIP kinase [4]; 0.5 mM, 20 min): 100 % of control
Relative Activity (p48 SIP kinase [4]; 5.0 mM, 20 min): 50 % of control
effect on p48 SIP kinase activity (p48 SIP kinase [4]): inhibited the enzyme

OC(CS)C(O)CS (stereo not drawn) [DTT]
activity at 5000 µM (p48 SIP kinase [4]; [7]): 100%

CN(C)C(=O)/N=N/C(=O)N(C)C [Diamide]
activity at 5000 µM (p48 SIP kinase [4]; [7]): 50%

O=C(O)CN(CCOCCOCCN(CC(=O)O)CC(=O)O)CC(=O)O [EGTA]
activity at 10000 µM (p48 SIP kinase [4]; 20 min, pH 7.5, 10 mM, read-out: Relative Activity): 100%
effect on p48 SIP kinase activity (p48 SIP kinase [4]): no effect on its activity

O=c1c(-c2ccc(O)cc2)coc2cc(O)cc(O)c12 [Genistein, genistein]
activity at 20 µM (p48 SIP kinase [4]; 20 min, pH 7.5, 20 μM, read-out: Relative Activity): 100%
effect on p48 SIP kinase activity (p48 SIP kinase [4]): no effect on its activity

COC(=O)[C@@]1(O)C[C@H]2O[C@]1(C)n1c3ccccc3c3c4c(c5c6ccccc6n2c5c31)C(=O)NC4 [K-252a]
IC50 (p48 SIP kinase [4]): 12 nM
activity at 0.012 µM (p48 SIP kinase [4]; [7]): 50%

Nc1ncnc2c1ncn2[C@@H]1O[C@H](COP(=O)(O)OP(=O)([O-])OP(=O)([O-])O)[C@@H](O)[C@H]1O.[Mg+2] [Mg^2+ -ATP]
Vmax (p48 SIP kinase [3]): 0.39 µmol/min/mg
Km (p48 SIP kinase [3]; Mg^2+ -ATP): 24 µM

Nc1nc2c(ncn2[C@@H]2O[C@H](COP(=O)(O)OP(=O)(O)OP(=O)(O)O)[C@@H](O)[C@H]2O)c(=O)[nH]1 [Mg^2+ -GTP]
use as phospho-donor / phosphate donor (p48 SIP kinase [3]): could not use
use as phospho-donor / phosphate donor (p48 SIP kinase [3]; listed as GTP): unable to use GTP as a phosphate donor

[Mg+2] [Mg^2+]
metal ion requirement of the enzyme (p48 SIP kinase [3]): absolute requirement
MgCl2 concentration up to which kinase activity was strongly stimulated (p48 SIP kinase [3]; total concentration): ≤ 2 mM

[Mn+2] [Mn^2+]
metal ion requirement of the enzyme (p48 SIP kinase [3]): could not substitute for Mg^2+

[Na+].[Na+].[Na+].[O]=[V]([O-])([O-])[O-] [Na3 VO4]
prevention of phosphatase inactivation of SIP kinase (p48 SIP kinase [5]): could be prevented

[Na+] [Na^+]
Relative Activity (p48 SIP kinase [4]; 100 mM, 20 min): 100 % of control
Relative Activity (p48 SIP kinase [4]; 750 mM, 20 min): 50 % of control

NCCCCNCCCN [Spermidine, spermidine]
activity at 1000 µM (p48 SIP kinase [4]; 20 min, pH 7.5, 1 mM, read-out: Relative Activity): 100%
effect on p48 SIP kinase activity (p48 SIP kinase [4]): showed no effect at the concentrations tested

CN[C@@H]1C[C@H]2O[C@@](C)([C@@H]1OC)n1c3ccccc3c3c4c(c5c6ccccc6n2c5c31)C(=O)NC4 [Staurosporine, staurosporine]
IC50 (p48 SIP kinase [4]): 60 nM
activity at 0.06 µM (p48 SIP kinase [4]; [7]): 50%

[Zn+2] [Zn^2+]
Relative Activity (p48 SIP kinase [4]; 0.10 mM, 20 min): 100 % of control
Relative Activity (p48 SIP kinase [4]; 0.25 mM, 20 min): 50 % of control
effect on p48 SIP kinase activity (p48 SIP kinase [4]): inhibited the enzyme

Heparin
Relative Activity (p48 SIP kinase [4]; 50 μg mL^-1, 20 min): 50 % of control
effect on p48 SIP kinase activity (p48 SIP kinase [4]): showed inhibitory effects

Poly-L-glutamate [listing 1 of 2 here]
Relative Activity (p48 SIP kinase [4]; 500 μg mL^-1, 20 min): 50 % of control
effect on p48 SIP kinase activity (p48 SIP kinase [4]): showed inhibitory effects

Poly-L-glutamate [listing 2 of 2 here]
Relative Activity % of control (% of control at 500 µg mL^-1) [6]: 50

Poly-L-glutamine [listing 1 of 2 here]
Relative Activity (p48 SIP kinase [4]; 500 μg mL^-1, 20 min): 100 % of control
effect on p48 SIP kinase activity (p48 SIP kinase [4]): showed no effect at the concentrations tested

Poly-L-glutamine [listing 2 of 2 here]
Relative Activity % of control (% of control at 500 µg mL^-1) [6]: 100

Poly-L-lysine [listing 1 of 2 here]
Relative Activity (p48 SIP kinase [4]; 25 μg mL^-1, 20 min): 50 % of control
effect on p48 SIP kinase activity (p48 SIP kinase [4]): showed inhibitory effects

Poly-L-lysine [listing 2 of 2 here]
Relative Activity % of control (% of control at 25 µg mL^-1) [6]: 50

Protamine
Relative Activity (p48 SIP kinase [4]; 25 μg mL^-1): 50 % of control
effect on p48 SIP kinase activity (p48 SIP kinase [4]): showed inhibitory effects

protamine
Relative Activity % of control (% of control at 25 µg mL^-1) [6]: 50
